Data reported in the supplement of paper PMC13380429.

Legend:
Details in all cases: 72 h
U2OS [1] = assay: cell viability relative to DMSO; higher = less toxic
Vero E6 [2] = assay: as above
Calu-3 [3] = assay: as above
Caco-2 [4] = assay: as above
HepG2 [5] = assay: as above
U2OS [6] = assay: drug sensitivity score (DSS) for viability; higher = more toxic; extreme values may be limits of the assay
Vero E6 [7] = assay: as above
Calu-3 [8] = assay: as above
Caco-2 [9] = assay: as above
HepG2 [10] = assay: as above
U2OS [11] = assay: relative viability EC50 (midpoint between 100% and the lowest measured viability); higher = less toxic
Vero E6 [12] = assay: as above
Calu-3 [13] = assay: as above
Caco-2 [14] = assay: as above
HepG2 [15] = assay: as above

Compound	cell viability (U2OS [1]; 1 nM) [%]	cell viability (U2OS [1]; 10 nM) [%]	cell viability (U2OS [1]; 100 nM) [%]	cell viability (U2OS [1]; 1000 nM) [%]	cell viability (U2OS [1]; 10000 nM) [%]	cell viability (Vero E6 [2]; 1 nM) [%]	cell viability (Vero E6 [2]; 10 nM) [%]	cell viability (Vero E6 [2]; 100 nM) [%]	cell viability (Vero E6 [2]; 1000 nM) [%]	cell viability (Vero E6 [2]; 10000 nM) [%]	cell viability (Calu-3 [3]; 1 nM) [%]	cell viability (Calu-3 [3]; 10 nM) [%]	cell viability (Calu-3 [3]; 100 nM) [%]	cell viability (Calu-3 [3]; 1000 nM) [%]	cell viability (Calu-3 [3]; 10000 nM) [%]	cell viability (Caco-2 [4]; 1 nM) [%]	cell viability (Caco-2 [4]; 10 nM) [%]	cell viability (Caco-2 [4]; 100 nM) [%]	cell viability (Caco-2 [4]; 1000 nM) [%]	cell viability (Caco-2 [4]; 10000 nM) [%]	cell viability (HepG2 [5]; 1 nM) [%]	cell viability (HepG2 [5]; 10 nM) [%]	cell viability (HepG2 [5]; 100 nM) [%]	cell viability (HepG2 [5]; 1000 nM) [%]	cell viability (HepG2 [5]; 10000 nM) [%]	drug sensitivity score (U2OS [6])	drug sensitivity score (Vero E6 [7])	drug sensitivity score (Calu-3 [8])	drug sensitivity score (Caco-2 [9])	drug sensitivity score (HepG2 [10])	relative viability EC50 (U2OS [11]) [µM]	relative viability EC50 (Vero E6 [12]) [µM]	relative viability EC50 (Calu-3 [13]) [µM]	relative viability EC50 (Caco-2 [14]) [µM]	relative viability EC50 (HepG2 [15]) [µM]
CCOc1cc2ncc(C#N)c(Nc3ccc(OCc4ccccn4)c(Cl)c3)c2cc1NC(=O)/C=C/CN(C)C [neratinib]	93.6	96.7	96.7	88	75.7	104	102	90.9	64.1	17.5	93.4	69.6	43.9	34.9	33.7	98.7	93.4	85.1	54.7	35	111	97.3	88.2	77.6	17.8	1.8	8.7	22.8	10.3	7.5	> 10	1.14	0.0124	0.365	1.59
CNCCC(Oc1ccccc1OC)c1ccccc1 (stereo not given) [nisoxetine]	105	98.3	102	99	102	107	104	101	103	95.6	94	107	98.2	109	102	105	96.2	109	98.6	107	113	105	104	108	99	0	0	0	0	0	> 10	> 10	> 10	> 10	> 10
CCN(Cc1ccc(Cl)nc1)/C(=C/[N+](=O)[O-])NC [nitenpyram]	99	97	98	100	101	103	104	98.1	96.9	105	101	94	93.5	104	94	95.8	100	95	97.5	98.3	104	98.7	105	97.5	108	0	0	0	0	0	> 10	> 10	> 10	> 10	> 10
CC(=O)O[C@]1(C(C)=O)CC[C@H]2[C@@H]3C=C(C)C4=CC(=O)CC[C@@H]4[C@H]3CC[C@@]21C [nomegestrol-acetate]	99.8	102	102	103	101	100	96.3	99.3	98.6	111	99	94.1	87.7	106	108	88.5	97.3	102	91.6	97.4	103	97.1	102	106	110	0	0	0	0	0	> 10	> 10	> 10	> 10	> 10
NC[C@H](O)c1ccc(O)c(O)c1 [norepinephrine]	99.4	100	98.5	99.8	99.6	99.9	96.7	98.1	95	98.6	101	88.3	93.7	98.6	95.3	88.9	95.9	101	93.2	97.5	102	95.3	96	105	106	0	0	0	0	0	> 10	> 10	> 10	> 10	> 10
Cc1c(-c2cnccn2)ssc1=S [oltipraz]	98.3	96.5	101	96.4	104	88.1	95.2	88.7	93	104	94	94.7	106	96.5	101	94.2	96	103	106	101	93.4	103	94.2	94.7	105	0	0	0	0	0	> 10	> 10	> 10	> 10	> 10
N[C@H](C(=O)O)c1ccc(O)cc1 [oxfenicine]	99.7	103	98.6	102	95.7	99.7	96.3	101	91.3	99.1	103	95.1	99.2	103	103	94.2	90.6	88.6	88.6	96.3	84.1	96.3	96.9	103	100	0	0	0	0	0	> 10	> 10	> 10	> 10	> 10
